PubChem BioAssay (NCI)
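GI50 is the concentration that inhibits growth by half. Definition used: TGI = concentration required for complete inhibition of growth.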

Columns and labels:
Experiment in all cases: NCI anticancer screen, dose series, 384-well format
NCI-H522 lung = test system: NCI-H522 lung
PC-3 prostate = test system: PC-3 prostate
UO-31 renal = test system: UO-31 renal
SF-295 CNS = test system: SF-295 CNS
NCI-H322M lung = test system: NCI-H322M lung
RPMI-8226 leukemia = test system: RPMI-8226 leukemia
HS 578T breast = test system: HS 578T breast
A498 renal = test system: A498 renal
K-562 leukemia = test system: K-562 leukemia
SF-268 CNS = test system: SF-268 CNS
CCRF-CEM leukemia = test system: CCRF-CEM leukemia
EKVX NSCLC = test system: EKVX NSCLC
NCI-H23 lung = test system: NCI-H23 lung
HOP-62 NSCLC = test system: HOP-62 NSCLC
UACC-257 melanoma = test system: UACC-257 melanoma
MOLT-4 leukemia = test system: MOLT-4 leukemia
SF-539 CNS = test system: SF-539 CNS
OVCAR-5 ovarian = test system: OVCAR-5 ovarian
MDA-MB-231 breast = test system: MDA-MB-231 breast
SN12C renal = test system: SN12C renal
OVCAR-8 ovarian = test system: OVCAR-8 ovarian
T-47D breast = test system: T-47D breast
HCT-15 colon = test system: HCT-15 colon
MCF7 breast = test system: MCF7 breast
MDA-MB-435 melanoma = test system: MDA-MB-435 melanoma
HCC-2998 colon = test system: HCC-2998 colon
SK-MEL-28 melanoma = test system: SK-MEL-28 melanoma
DU-145 prostate = test system: DU-145 prostate
786-0 renal = test system: 786-0 renal

`COc1cc(C(=O)N[C@@H]2CCCN(C)C2)ccc1Nc1ncc2c(n1)N(C1CCCC1)CC(C)(C)C(=O)N2C` gave a GI50 (NCI-H522 lung) of 17.1 nM, a TGI (NCI-H522 lung) of 37.5 nM and a GI50 (PC-3 prostate) of 62.1 nM. For the same compound, the TGI (PC-3 prostate) was 2620 nM, the GI50 (UO-31 renal) was 345 nM and the TGI (UO-31 renal) was 1390 nM. It also gave a GI50 (SF-295 CNS) of 38.6 nM, a TGI (SF-295 CNS) of 196 nM and a GI50 (NCI-H322M lung) of 510 nM. The TGI (NCI-H322M lung) was 3730 nM, the GI50 (RPMI-8226 leukemia) was 31.6 nM and the TGI (RPMI-8226 leukemia) was 101 nM. The GI50 (HS 578T breast) was 16.9 nM, the TGI (HS 578T breast) was 89 nM and the GI50 (A498 renal) was 206 nM. The TGI (A498 renal) was 1850 nM, the GI50 (K-562 leukemia) was 19.1 nM and the TGI (K-562 leukemia) was 55.4 nM. For the same compound, the GI50 (SF-268 CNS) was 10.5 nM, the TGI (SF-268 CNS) was 47 nM and the TGI (CCRF-CEM leukemia) was 21.3 nM. For the same compound, the GI50 (EKVX NSCLC) was 119 nM, the TGI (EKVX NSCLC) was 1880 nM and the GI50 (NCI-H23 lung) was 17.6 nM. The TGI (NCI-H23 lung) was 52.6 nM, the GI50 (HOP-62 NSCLC) was 31.7 nM and the TGI (HOP-62 NSCLC) was 598 nM. It also gave a GI50 (UACC-257 melanoma) of 40.8 nM, a TGI (UACC-257 melanoma) of 612 nM and a GI50 (MOLT-4 leukemia) of 13.3 nM. For the same compound, the TGI (MOLT-4 leukemia) was 26.4 nM, the GI50 (SF-539 CNS) was 36 nM and the TGI (SF-539 CNS) was 267 nM. For the same compound, the GI50 (OVCAR-5 ovarian) was 35.9 nM, the TGI (OVCAR-5 ovarian) was 1220 nM and the GI50 (MDA-MB-231 breast) was 41.8 nM. The TGI (MDA-MB-231 breast) was 2220 nM, the GI50 (SN12C renal) was 94.2 nM and the TGI (SN12C renal) was 2210 nM. For the same compound, the GI50 (OVCAR-8 ovarian) was 22.3 nM, the TGI (OVCAR-8 ovarian) was 53.9 nM and the GI50 (T-47D breast) was 81.5 nM. For the same compound, the TGI (T-47D breast) was 892 nM, the GI50 (HCT-15 colon) was 69.6 nM and the TGI (HCT-15 colon) was 334 nM. For the same compound, the GI50 (MCF7 breast) was 28.9 nM, the TGI (MCF7 breast) was 1300 nM and the GI50 (MDA-MB-435 melanoma) was 19 nM. It also gave a TGI (MDA-MB-435 melanoma) of 40.6 nM, a GI50 (HCC-2998 colon) of 21.8 nM and a TGI (HCC-2998 colon) of 94.2 nM. For the same compound, the GI50 (SK-MEL-28 melanoma) was 128 nM, the TGI (SK-MEL-28 melanoma) was 911 nM and the GI50 (DU-145 prostate) was 35.1 nM. The TGI (DU-145 prostate) was 206 nM, the GI50 ([…]-0 renal) was 63.8 nM and the TGI (786-0 renal) was 1440 nM.
